Test results from patent US20140024653A1, “COMPOSITIONS AND METHODS FOR TREATING CANCER USING PI3K INHIBITOR AND MEK INHIBITOR” (priority 2011, published 2014).

Assays:
EJ28 = experiment: SRB cell growth assay, 72 h; assay type: cell-based, human; details: single agent
HCT116 = experiment: SRB cell growth assay, 72 h; assay type: cell-based, human
MCF7 = experiment: SRB cell growth assay, 72 h; assay type: cell-based, human; details: for GI50: Homo sapiens
EFO21 = experiment: SRB cell growth assay, 72 h; assay type: cell-based; details: Homo sapiens, EFO-21, highest tested concentration 50 μM, read-out: activity (estimated)
Description: (§1) Cell growth and treatment were performed in 96-well microtitre plates CELLSTAR® (Greiner Bio-One, Germany). Cells harvested from exponential phase cultures by trypsinization were plated in 150 μl of media at optimal seeding densities. The optimal seeding densities for each cell line were determined to ensure exponential growth for the duration of the experiment. All cells growing without anticancer agents were sub-confluent by the end of the treatment as determined by visual inspection.
(§2) 150 μl of cells, after a 24-hour pre-growth period, were treated by mixing with 50 μl of the compound containing media (resulting in a final DMSO concentration of 0.1%). The cells were allowed to grow at 37° C. for 72 hours. In addition, all experiments contained a few plates with cells that were processed for measurement immediately after the 24 hours recovery period. These plates contained information about the cell number that existed before treatment, at time zero, and served to calculate the cytotoxicity.
(§3) After treatment, cells were precipitated by addition of 10% TCA. Prior to fixation, the media was aspirated as described. After an hour of incubation at 4° C., the plates were washed two times with 400 μl of deionized water. Cells were then stained with 100 μl of a 0.08% wt/v SRB. The plates were allowed to sit for at least 30 min. and washed six times with 1% acetic acid to remove unbound stain. The plates were left to dry at room temperature and bound SRB was solubilized with 100 μl of 10 mM Tris base. Measurement of optical density was performed at 560 nm on a Victor 2 plate reader (Perkin Elmer, Germany). The SRB values for A375 and H460 cell lines were near to saturation (2.5 OD units) due to the high protein content of these cells, but not cell confluence. The measurements for these cells were performed at 520 nm instead of 560 nm.
(§4) Using these measurements, cellular responses can be calculated for incomplete inhibition of cell growth (GI), complete inhibition of cell growth (T GI) and net loss of cells (LC) due to compound activity. […] This is the drug concentration causing a 50% reduction compared to the net protein increase in control cells during the drug incubation period. In other words, GI50 is IC50 corrected for time zero. Similar to IC90, calculated GI90 values are also reported for all compounds tested. TGI was calculated from Ti=Tz. […] It was calculated as 100×[(Ti−Tz)/Tz]=−50. However, due to 72 hours treatment, low cell seeding density was required and LC50 could rarely be achieved.

SAOS2 = experiment: SRB cell growth assay, 72 h; assay type: cell-based; details: Homo sapiens, SAOS-2, highest tested concentration 50 μM, read-out: activity (estimated)
Description: as §1, §2, §3, §4

[1] = test system: human pancreatic MiaPaCa-2; experiment: antitumor activity against subcutaneous MiaPaCa-2 xenografts; assay type: in vivo, nude mice; details: 21 days
Description: The human pancreatic cancer cell line MiaPaCa-2 (American Type Culture Collection, Manassas Va.), was cultured in MEM medium containing 10% fetal bovine serum, 1% essential amino acid, 1% sodium pyruvate (Life Technologies, Carlsbad, Calif.). […] Cells were re-suspended in PBS (Life Technologies, Carlsbad, Calif.) and then mixed 1:1 with Matrigel (BD Biosciences, San Jose, Calif.). Cells were stored at 4° C. until implantation. MiaPaCa-2 cells (10×10^6 in a 200 μl PBS:Matrigel (1:1) suspension) were subcutaneously injected into the right flank area of female nude (Crl:NU-Foxn1nu) mice (6-8 weeks old, Charles River Laboratories, Wilmington, Mass.). All mice in this study were used according to the guidelines approved by the EMD-Serono Institutional Care and Animal Use Committee (IACUC), #07-003. Developing tumors located in the right flank area of female nude mice were measured over time with digital calipers. […] The remaining tumor-bearing mice were randomized into seven experimental groups (n=9), so that each group had the same mean tumor volume. […] The treatments began on the seventh day following implantation of the Miapaca-2 cells, which was designated as Day 0 for data evaluation purposes. […] Body weights and tumor volumes were assessed twice per week post treatment initiation. […] Efficacy was determined by analyzing tumor volumes and the percent ΔT/ΔC (% ΔT/ΔC). Tumor volume was determined by using the tumor length (1) and width (w) measurements and calculating the volume with the equation 1*w^2/2. The length was measured along the longest axis of the tumor and width was measured perpendicular to that length. The mean percent of actual tumor growth inhibited by the treatments was calculated as follows: [% ΔT/ΔC=(([…]))×100%], where TV=tumor volume, f=final, i=initial and Ctrl=control group. Tolerability was assessed by regarding percent body weight difference during the treatment period. Percent body weight difference was calculated as follows: [% Body weight difference=(BWc-BWi)/BWi×100%], where BW=body weight, c=current, i=initial.

[2] = test system: human primary colon tumors CR-LRB-009C; experiment: antitumor activity against subcutaneous CR-LRB-009C xenografts; assay type: in vivo; details: for tolerability: as single agents or used in combination
Description: The human primary colon carcinoma CR-LRB-009C tumor model was established by implanting (SC) small tumor fragments and was maintained in SCID female mice using serial passages.
Treatments were administered on measurable tumors. […] Mice were checked daily, and adverse clinical reactions noted.
Animal body weights included the tumor weight.
The primary efficacy end points are ΔT/ΔC, percent median regression, partial and complete regressions (PR and CR). Statistical analyses were performed on SAS system release 8.2 for SUN4 via Everstat V5 software and SAS 9.2 software. A probability less than 5% (p<0.05) was considered as significant.

217 kinases = details: tested at 10 μM; cited from earlier work
[3] = chemical stability of dosing stock solution; assay type: physicochemical; details: in 1N HCl and water for injection, pH 3; in the dark at 4° C.
Description: Compound (2a) formulation was prepared in water for injection. The stock solution was chemically stable 7 days in the dark at 4° C. […] The pH of the final solution was 3. […]

[4] = test system: PC-3, U87-MG, A2058, WM-266-4 and MCF7 xenografts; details: oral administration alone; PTEN-deficient PC-3, U87-MG, A2058, WM-266-4 or PIK3CA mutated MCF7 xenografts; cited from earlier work
[5] = (1) 20 mg/kg PO daily days 11-21
[6] = (2b) 20 mg/kg PO daily days 11-21

Compound: O=C(NC[C@H](O)CO)c1ccncc1Nc1ccc(I)cc1F [Compound (1), N—((S)-2,3-dihydroxypropyl)-3-(2-fluoro-4-iodo-phenylamino)isonicotinamide]
- z-score MSC6369 (EJ28): −0.68
- z-score MSC6369 (HCT116; single agent): −0.32
- GI50 (MCF7): 150 nM
- z-score MSC6369 (MCF7; single agent): −0.33
- IC50 (EFO21): > 50000 nM
- IC50 (SAOS2): > 50000 nM
- % ΔT/ΔC ([1]; AS703026 5 mg/kg po QD, 5 mg/kg): 56.2%
- Average body weight change in % per mouse at nadir [2, 5]: −7.7 (20) %
- Drug death [2, 5]: 0/7
- Regressions Complete [2, 5]: 0/7
- Regressions Partial [2, 5]: 0/7
- Median ΔT/ΔC in % day 21 ([2]; (1) 20 mg/kg PO daily days 11-21, 20 mg/kg): 53%
- tolerability [2]: tolerated, inducing some BWL but not reaching toxicity
- activity against 217 kinases (217 kinases): no activity

Compound: CCn1c(=O)c(-c2ccn[nH]2)cc2c(C)nc(N)nc21 [Compound (2b), 2-amino-8-ethyl-4-methyl-6-(1H-pyrazol-5-yl)pyrido[2,3-d]pyrimidin-7(8H)-one]
- z-score MSC0765 (EJ28): 1.25
- GI50 (HCT116; Homo sapiens, HCT-116, non-sensitive, z score >1.5): > 4000 nM
- z-score MSC0765 (HCT116; single agent): 1.90
- GI50 (MCF7): 1600 nM
- z-score MSC0765 (MCF7; single agent): 0.30
- % ΔT/ΔC ([1]; XL-765 30 mg/kg po QD, 30 mg/kg): 77.0%
- Average body weight change in % per mouse at nadir [2, 6]: −7.4 (19) %
- Drug death [2, 6]: 0/7
- Median ΔT/ΔC in % day 21 [2, 6]: 51%
- Regressions Complete [2, 6]: 0/7
- Regressions Partial [2, 6]: 0/7
- tolerability [2]: tolerated, inducing some BWL but not reaching toxicity
- stock solution chemically stable [3]: 7 days
- tumor growth [4]: inhibits tumor growth
